Read-outs that look alike come from different tables or passages of the source.
Columns and labels:
K. pneumoniae = test: Serial twofold agar dilution (Mueller-Hinton agar), K. pneumoniae; assay type: cell-based
Description: (§1) The Minimum Inhibitory Concentrations (MIC) for sodium 6-[D-(-)-α-phenyl-α-(7-hydroxy-4-oxo-4H-pyrimido[1,2-b]pyridazin-3-ylcarboxamido)acetamido]penicillanate (BB-P598) and sulbenicillin were determined by the serial twofold agar dilution method using Steers' apparatus on Mueller-Hinton agar plates against 31 test organisms for the primary screening (Table 1) and also against 61 strains of Pseudomonas aeruginosa for the secondary evaluation (Table 2).
(§2) Minimum Inhibitory Concentrations (MIC) for sodium 6-[D-(-)-α-phenyl-α-(7-hydroxy-4-oxo-4H-pyrimido[1,2-b]pyridazin-3-ylcarboxamido)acetamido]pencillanate (BB-P598), sodium 6-[D-(-)-α-(4-hydroxyphenyl)-α-(7-hydroxy-4-oxo-4H-pyrimido[1,2-b]pyridazin-3-ylcarboxamido)acetamido]-penicillanate (BB-P642) and carbenicillin were determined by the serial twofold agar dilution method using Steers' apparatus on Mueller-Hinton agar plates against 31 tests organisms (Table 8) and also against 61 strains of Pseudomonas aeruginosa (Table 9). In terms of mean % relative activity compared with carbenicillin, compounds BB-B598 and BB-P642 were 856% and 1319% as active as carbenicillin against the 61 Pseudomonas strains of Table 9.

Pseudomonas aeruginosa = test: Serial twofold agar dilution (Mueller-Hinton agar), P. aeruginosa; assay type: cell-based; conditions: for MIC: Pseudomonas aeruginosa
Description: as §1, §2

## CC1(C)S[C@@H]2[C@H](NC(=O)[C@H](NC(=O)c3cnc4ccc(O)nn4c3=O)c3ccccc3)C(=O)N2[C@H]1C(=O)O [BB-P598, sodium 6-[D-(-)-α-phenyl-α-(7-hydroxy-4-oxo-4H-pyrimido[1,2-b]pyridazin-3-ylcarboxamido)acetamido]penicillanate]
K. pneumoniae; K. pneumoniae A9977, Table 1
  MIC: 12.5 µg/mL
K. pneumoniae; Klebsiella pneumoniae, K. pneumoniae A9977, Table 8, read-out: MIC
  MIC: 12.5 µg/mL
Pseudomonas aeruginosa; 61 strains of P. aeruginosa, Table 2
  Mean % relative activity (sulbenicillin = 100%): 756%
Pseudomonas aeruginosa; 61 strains of P. aeruginosa, Table 9
  Mean % relative activity compared with carbenicillin: 856%
Pseudomonas aeruginosa; 61 strains of P. aeruginosa, Table 2, read-out: Geometric mean of MIC
  MIC: 4.2 µg/mL
Pseudomonas aeruginosa; 61 strains of P. aeruginosa, Table 9, read-out: Geometric mean of MIC
  MIC: 3.5 µg/mL
Pseudomonas aeruginosa; ATCC19660, Pa-14 ATCC 19660 A20325, Mueller-Hinton agar, Table 9, read-out: MIC
  MIC: 6.3 µg/mL
Pseudomonas aeruginosa; GN315, Pa-27 GN315 A21294, Mueller-Hinton agar, Table 2, read-out: MIC
  MIC: 3.1 µg/mL
Pseudomonas aeruginosa; GN315, Pa-27 GN315 A21294, Mueller-Hinton agar, Table 9, read-out: MIC
  MIC: 1.6 µg/mL
Pseudomonas aeruginosa; GN4925, Pa-45 GN4925, Mueller-Hinton agar, Table 2, read-out: MIC
  MIC: 6.3 µg/mL
Pseudomonas aeruginosa; GN4925, Pa-45 GN 4925, Mueller-Hinton agar, Table 9, read-out: MIC
  MIC: 6.3 µg/mL
Pseudomonas aeruginosa; P. aeruginosa A9843, Mueller-Hinton agar, Table 1, read-out: MIC
  MIC: 3.1 µg/mL
Pseudomonas aeruginosa; P. aeruginosa A9843, Mueller-Hinton agar, Table 8, read-out: MIC
  MIC: 3.1 µg/mL
Pseudomonas aeruginosa; P. aeruginosa A9930, Mueller-Hinton agar, Table 1, read-out: MIC
  MIC: 1.6 µg/mL
Pseudomonas aeruginosa; P. aeruginosa A9930, Mueller-Hinton agar, Table 8, read-out: MIC
  MIC: 1.6 µg/mL
Pseudomonas aeruginosa; P. aeruginosa A15150, Mueller-Hinton agar, Table 1, read-out: MIC
  MIC: 0.8 µg/mL
Pseudomonas aeruginosa; P. aeruginosa A15150, Mueller-Hinton agar, Table 8, read-out: MIC
  MIC: 1.6 µg/mL
Pseudomonas aeruginosa; P. aeruginosa A20229, Mueller-Hinton agar, Table 1, read-out: MIC
  MIC: 1.6 µg/mL
Pseudomonas aeruginosa; P. aeruginosa A20717, Mueller-Hinton agar, Table 1, read-out: MIC
  MIC: 6.3 µg/mL
Pseudomonas aeruginosa; P. aeruginosa A20717, Mueller-Hinton agar, Table 8, read-out: MIC
  MIC: 6.3 µg/mL
Pseudomonas aeruginosa; Pa-1 D15, Mueller-Hinton agar, Table 2, read-out: MIC
  MIC: 6.3 µg/mL
Pseudomonas aeruginosa; Pa-1 D15, Mueller-Hinton agar, Table 9, read-out: MIC
  MIC: 6.3 µg/mL
Pseudomonas aeruginosa; Pa-2 V.A A9923, Mueller-Hinton agar, Table 9, read-out: MIC
  MIC: 3.1 µg/mL
Pseudomonas aeruginosa; Pa-2 VA A9923, Mueller-Hinton agar, Table 2, read-out: MIC
  MIC: 3.1 µg/mL
Pseudomonas aeruginosa; Pa-3 1449 V.A A9930, Mueller-Hinton agar, Table 9, read-out: MIC
  MIC: 3.1 µg/mL
Pseudomonas aeruginosa; Pa-3 1449VA A9930, Mueller-Hinton agar, Table 2, read-out: MIC
  MIC: 1.6 µg/mL
Pseudomonas aeruginosa; Pa-4 H9, D113 A21295, Mueller-Hinton agar, Table 9, read-out: MIC
  MIC: 3.1 µg/mL
Pseudomonas aeruginosa; Pa-4 H9 D113 A21295, Mueller-Hinton agar, Table 2, read-out: MIC
  MIC: 6.3 µg/mL
Pseudomonas aeruginosa; Pa-5 M4865, K.C A15150, Mueller-Hinton agar, Table 9, read-out: MIC
  MIC: 1.6 µg/mL
Pseudomonas aeruginosa; Pa-5 M4865KC A15150, Mueller-Hinton agar, Table 2, read-out: MIC
  MIC: 3.1 µg/mL
Pseudomonas aeruginosa; Pa-6 No. 5 A15194, Mueller-Hinton agar, Table 2, read-out: MIC
  MIC: 25 µg/mL
Pseudomonas aeruginosa; Pa-6 No. 5 Levitan A15194, Mueller-Hinton agar, Table 9, read-out: MIC
  MIC: 12.5 µg/mL
Pseudomonas aeruginosa; Pa-7 A9843, Mueller-Hinton agar, Table 2, read-out: MIC
  MIC: 6.3 µg/mL
Pseudomonas aeruginosa; Pa-10 A20479, Mueller-Hinton agar, Table 2, read-out: MIC
  MIC: > 100 µg/mL
Pseudomonas aeruginosa; Pa-10 A21479, Mueller-Hinton agar, Table 9, read-out: MIC
  MIC: 100 µg/mL
Pseudomonas aeruginosa; Pa-11 A20616, Mueller-Hinton agar, Table 2, read-out: MIC
  MIC: 3.1 µg/mL
Pseudomonas aeruginosa; Pa-11 A20616, Mueller-Hinton agar, Table 9, read-out: MIC
  MIC: 6.3 µg/mL
Pseudomonas aeruginosa; Pa-12 A20653, Mueller-Hinton agar, Table 2, read-out: MIC
  MIC: 6.3 µg/mL
Pseudomonas aeruginosa; Pa-12 A20653, Mueller-Hinton agar, Table 9, read-out: MIC
  MIC: 6.3 µg/mL
Pseudomonas aeruginosa; Pa-14 A20325, Mueller-Hinton agar, Table 2, read-out: MIC
  MIC: 3.1 µg/mL
Pseudomonas aeruginosa; Pa-15 A20717, Mueller-Hinton agar, Table 2, read-out: MIC
  MIC: 6.3 µg/mL
Pseudomonas aeruginosa; Pa-15 A20717, Mueller-Hinton agar, Table 9, read-out: MIC
  MIC: 12.5 µg/mL
Pseudomonas aeruginosa; Pa-16 #130 A20718, Mueller-Hinton agar, Table 2, read-out: MIC
  MIC: 0.8 µg/mL
Pseudomonas aeruginosa; Pa-16 #130 A20718, Mueller-Hinton agar, Table 9, read-out: MIC
  MIC: 0.4 µg/mL
Pseudomonas aeruginosa; Pa-17 H6, D114, Mueller-Hinton agar, Table 9, read-out: MIC
  MIC: 1.6 µg/mL
Pseudomonas aeruginosa; Pa-17 H6 D114, Mueller-Hinton agar, Table 2, read-out: MIC
  MIC: 3.1 µg/mL
Pseudomonas aeruginosa; Pa-18 H8, D121, Mueller-Hinton agar, Table 9, read-out: MIC
  MIC: 1.6 µg/mL
Pseudomonas aeruginosa; Pa-18 H8 D121, Mueller-Hinton agar, Table 2, read-out: MIC
  MIC: 3.1 µg/mL
Pseudomonas aeruginosa; Pa-19 A20229, Mueller-Hinton agar, Table 2, read-out: MIC
  MIC: 1.6 µg/mL
Pseudomonas aeruginosa; Pa-19 A20229, Mueller-Hinton agar, Table 9, read-out: MIC
  MIC: 0.8 µg/mL
Pseudomonas aeruginosa; Pa-20 A20325, Mueller-Hinton agar, Table 2, read-out: MIC
  MIC: 6.3 µg/mL
Pseudomonas aeruginosa; Pa-20 A20325, Mueller-Hinton agar, Table 9, read-out: MIC
  MIC: 3.1 µg/mL
Pseudomonas aeruginosa; Pa-21 A20601, Mueller-Hinton agar, Table 2, read-out: MIC
  MIC: 3.1 µg/mL
Pseudomonas aeruginosa; Pa-21 A20601, Mueller-Hinton agar, Table 9, read-out: MIC
  MIC: 3.1 µg/mL
Pseudomonas aeruginosa; Pa-23 A20741, Mueller-Hinton agar, Table 2, read-out: MIC
  MIC: 6.3 µg/mL
Pseudomonas aeruginosa; Pa-23 A20741, Mueller-Hinton agar, Table 9, read-out: MIC
  MIC: 3.1 µg/mL
Pseudomonas aeruginosa; Pa-24 A20896, Mueller-Hinton agar, Table 2, read-out: MIC
  MIC: 25 µg/mL
Pseudomonas aeruginosa; Pa-24 A20896, Mueller-Hinton agar, Table 9, read-out: MIC
  MIC: 100 µg/mL
Pseudomonas aeruginosa; Pa-25 A20897, Mueller-Hinton agar, Table 2, read-out: MIC
  MIC: 1.6 µg/mL
Pseudomonas aeruginosa; Pa-25 A20897, Mueller-Hinton agar, Table 9, read-out: MIC
  MIC: 1.6 µg/mL
Pseudomonas aeruginosa; Pa-26 PS32, Mueller-Hinton agar, Table 9, read-out: MIC
  MIC: 25 µg/mL
Pseudomonas aeruginosa; Pa-26 Ps32, Mueller-Hinton agar, Table 2, read-out: MIC
  MIC: 1.6 µg/mL
Pseudomonas aeruginosa; Pa-28 C.P.H. 10527/72, Mueller-Hinton agar, Table 9, read-out: MIC
  MIC: 3.1 µg/mL
Pseudomonas aeruginosa; Pa-28 CPH10527/72, Mueller-Hinton agar, Table 2, read-out: MIC
  MIC: 6.3 µg/mL
Pseudomonas aeruginosa; Pa-29 D122, Mueller-Hinton agar, Table 2, read-out: MIC
  MIC: 3.1 µg/mL
Pseudomonas aeruginosa; Pa-29 D122, Mueller-Hinton agar, Table 9, read-out: MIC
  MIC: 3.1 µg/mL
Pseudomonas aeruginosa; Pa-30 A20600, Mueller-Hinton agar, Table 2, read-out: MIC
  MIC: 3.1 µg/mL
Pseudomonas aeruginosa; Pa-30 A20600, Mueller-Hinton agar, Table 9, read-out: MIC
  MIC: 1.6 µg/mL
Pseudomonas aeruginosa; Pa-31 A20594, Mueller-Hinton agar, Table 2, read-out: MIC
  MIC: 0.8 µg/mL
Pseudomonas aeruginosa; Pa-31 A20594, Mueller-Hinton agar, Table 9, read-out: MIC
  MIC: 1.6 µg/mL
Pseudomonas aeruginosa; Pa-32 A20595, Mueller-Hinton agar, Table 2, read-out: MIC
  MIC: 3.1 µg/mL
Pseudomonas aeruginosa; Pa-32 A20595, Mueller-Hinton agar, Table 9, read-out: MIC
  MIC: 3.1 µg/mL
Pseudomonas aeruginosa; Pa-33 A20598, Mueller-Hinton agar, Table 2, read-out: MIC
  MIC: 12.5 µg/mL
Pseudomonas aeruginosa; Pa-33 A20598, Mueller-Hinton agar, Table 9, read-out: MIC
  MIC: 1.6 µg/mL
Pseudomonas aeruginosa; Pa-34 A20603, Mueller-Hinton agar, Table 2, read-out: MIC
  MIC: 3.1 µg/mL
Pseudomonas aeruginosa; Pa-34 A20603, Mueller-Hinton agar, Table 9, read-out: MIC
  MIC: 1.6 µg/mL
Pseudomonas aeruginosa; Pa-35, Mueller-Hinton agar, Table 2, read-out: MIC
  MIC: 12.5 µg/mL
Pseudomonas aeruginosa; Pa-35, Mueller-Hinton agar, Table 9, read-out: MIC
  MIC: 6.3 µg/mL
Pseudomonas aeruginosa; Pa-36, Mueller-Hinton agar, Table 2, read-out: MIC
  MIC: 0.4 µg/mL
Pseudomonas aeruginosa; Pa-36, Mueller-Hinton agar, Table 9, read-out: MIC
  MIC: < 0.2 µg/mL
Pseudomonas aeruginosa; Pa-37 A20130, Mueller-Hinton agar, Table 2, read-out: MIC
  MIC: 3.1 µg/mL
Pseudomonas aeruginosa; Pa-37 A20130, Mueller-Hinton agar, Table 9, read-out: MIC
  MIC: 3.1 µg/mL
Pseudomonas aeruginosa; Pa-38 A20349, Mueller-Hinton agar, Table 2, read-out: MIC
  MIC: 6.3 µg/mL
Pseudomonas aeruginosa; Pa-38 A20349, Mueller-Hinton agar, Table 9, read-out: MIC
  MIC: 12.5 µg/mL
Pseudomonas aeruginosa; Pa-39 A20641, Mueller-Hinton agar, Table 2, read-out: MIC
  MIC: 3.1 µg/mL
Pseudomonas aeruginosa; Pa-39 A20641, Mueller-Hinton agar, Table 9, read-out: MIC
  MIC: 1.6 µg/mL
Pseudomonas aeruginosa; Pa-41 A21227, Mueller-Hinton agar, Table 2, read-out: MIC
  MIC: 3.1 µg/mL
Pseudomonas aeruginosa; Pa-41 A21227, Mueller-Hinton agar, Table 9, read-out: MIC
  MIC: 3.1 µg/mL
Pseudomonas aeruginosa; Pa-42 A21229, Mueller-Hinton agar, Table 2, read-out: MIC
  MIC: 25 µg/mL
Pseudomonas aeruginosa; Pa-42 A21229, Mueller-Hinton agar, Table 9, read-out: MIC
  MIC: 6.3 µg/mL
Pseudomonas aeruginosa; Pa-43 A21233, Mueller-Hinton agar, Table 2, read-out: MIC
  MIC: 3.1 µg/mL
Pseudomonas aeruginosa; Pa-43 A21233, Mueller-Hinton agar, Table 9, read-out: MIC
  MIC: 3.1 µg/mL

Source: US4231928A, “Antibacterial agents” (priority 1979, dated 1980)
